Data taken from patent US6019997A, “Hydroalcoholic compositions for transdermal penetration of pharmaceutical agents” (priority 1997, dated 2000).

Tests used:
Format in all cases: physicochemical
[1] = Viscosity (Brookfield LVDV-I+ viscometer, 23° C.); conditions: result in words
Description: In the following Examples (except where indicated) viscosity was measured at 23° C. at ambient pressure using a Brookfield LVDV-I^+ viscometer equipped with a model D Brookfield heliopath and T spindles B-F. The spindle and speed was chosen for each particular sample such that the viscometer was operating in the middle of its range. All samples were allowed to equilibrate at 23° C. for 24 hours prior to measurement. Preferably the viscosity is taken at the lowest speed possible while staying within 20-80% of the viscometer range and more preferably between 30-70% of the range. In all cases the sample size and container geometry was chosen to ensure that there were no wall effects. By "wall effects" it is meant the viscosity value is not affected by the container and is essentially equivalent to the viscosity taken in an infinitely large container. For this reason lower viscosity samples required a larger sample size to accommodate the larger spindles. The following table outlines preferred spindles for various sample viscosities.
The viscosity of each sample was taken as the highest relatively stable reading achieved on the first path the spindle traversed using the heliopath adapter.

[2] = Emulsion stability; conditions: concentrations below about 1% by weight
[3] = Melt temperature (Tm); conditions: result in words
Description: The melt temperature was measured by placing approximately 15 grams sample in a 25 cc sealed glass vial and placing the vial in a water bath. The temperature of the bath was increased periodically in discrete increments and the contents checked after approximately 1 hour at a given temperature. The melt temperature was taken as the temperature at which the mixture became very low in viscosity.

Row | Molecule | effect of emollient on viscoelasticity of certain emulsifier systems [1] | phase separation when heated above the melt temperature [2] | effect of emollient on melt temperature of the composition [3]
1 | CCCCCCCCCCCCCCCC [hexadecane] | can increase the viscoelasticity of certain emulsifier systems | – | –
2 | CCCCCCCCCCCCOCCOCCOCCOCCO [laureth-4] | – | does not phase out | tends to decrease the melt temperature of the composition
3 | trioctyldodecyl citrate | – | – | significantly decrease the melt temperature of some systems
